Measurements published in patent US11142522B2, “Compounds, compositions and methods for cancer treatment” (THE BROAD INSTITUTE, INC., priority 2017, dated 2021).
“And” between values parts separate entries of the source, which are not always exact repeats. Identical values can stand only once. Marks after values point to notes of the source that are not given here.

Legend:
IGR-37 xenograft = experiment: In vivo xenotransplantation model; parameters: species or system mice; details: IGR-37, Melanoma, 40 mg/kg 2QD p.o.
Description: (§1) The anti-tumor activity of Compound 1 was examined in murine xenotransplantation models of human cancer. For this purpose, mice were implanted subcutaneously with tumor cells. At a mean tumor size of 20-40 mm^2 animals were randomized into treatment and control groups (at least n=10 animals/group) and treatment started with vehicle only or Compound 1 (formulation: 90% PEG400/10% Ethanol; application route: per os (“p.o.”), orally). The oral application volume was 10 ml/kg. In the case of twice daily treatments, the time interval between two applications per day was 6-7h. The tumor size and the body weight were determined at least weekly. The tumor area was detected by means of an electronic caliper [length (mm)×width (mm)]. The experiment was ended when the tumors of the vehicle control reached the pre-determined ethical endpoint based on German and European animal welfare regulations. In vivo anti-tumor efficacy is presented as T/C ratio at study end (Treatment/Control; mean tumor area or weight of treatment group/mean tumor area or weight of control group) in Table 7. A compound having a T/C below 0.5 is defined as active (i.e., effective). Statistical analysis was assessed using SigmaStat software. A one-way analysis of variance was performed and differences to the control were compared by a pair-wise comparison procedure (Dunn's method).

HeLa xenograft = experiment: In vivo xenotransplantation model; parameters: species or system mice; details: Cervical cancer, 10 mg/kg 2QD p.o., study end
Description: as §1

SK-MEL3 xenograft = experiment: In vivo xenotransplantation model; parameters: species or system mice; details: SK-MEL3, Melanoma, 40 mg/kg 2QD p.o.
Description: as §1

A2058 xenograft = experiment: In vivo xenotransplantation model; parameters: species or system mice; details: A2058, Melanoma, 40 mg/kg 2QD p.o.
Description: as §1

[1] = test system: xenograft models of human tumors; experiment: Murine xenotransplantation models of human cancer (overall); assay type: in vivo, mice; details: monotherapy, p.o., different xenograft models
Description: as §1

[2] = In vitro metabolic stability in cryopreserved human hepatocytes; assay type: in vitro ADME; details: 1 μM test compound
Description: Cryopreserved Hepatocytes (e.g. purchased from Celsis InVitroTechnologies) were briefly thawed, washed with 45 mL pre-warmed in in vitro GRO HT medium and centrifuged for 5 min at 50×g. The cell pellet was resuspended in 5 ml of Krebs-Henseleit […] (KHB). Cell viability was determined by trypan blue exclusion.
For the metabolic stability assay liver cells were distributed in WME containing 5% FCS to glass vials at a density of 1.0×10^6 vital cells/ml. The test compound was added to a final concentration of 1 μM. During incubation, the hepatocyte suspensions were continuously shaken at 580 rpm and aliquots were taken at 2, 8, 16, 30, 45 and 90 min, to which equal volumes of cold methanol were immediately added. Samples were frozen at −20° C. over night, after subsequently centrifuged for 15 minutes at 3000 rpm and the supernatant was analyzed with an Agilent 1290 HPLC-system with LCMS/MS detection.
The half-life of a test compound was determined from the concentration-time plot. From the half-life the intrinsic clearances were calculated. Together with the additional parameters liver blood flow, amount of liver cells in vivo and in vitro. The hepatic in vivo blood clearance (CL) and the maximal oral bioavailability (Fmax) was calculated.

human full length PDE3A = molecular target: T1, human full length PDE3A (Homo sapiens, UniProt Q14432); experiment: PDE3A enzyme inhibition, 3H-cAMP scintillation proximity assay; assay type: biochemical
T1 construct: Sf9 cells overexpressing human full length PDE3A; purchased SB Drug Discovery, UK; host or cells: Sf9 insect cells (cell extract, not purified)
T1 sequence (Q14432 whole entry): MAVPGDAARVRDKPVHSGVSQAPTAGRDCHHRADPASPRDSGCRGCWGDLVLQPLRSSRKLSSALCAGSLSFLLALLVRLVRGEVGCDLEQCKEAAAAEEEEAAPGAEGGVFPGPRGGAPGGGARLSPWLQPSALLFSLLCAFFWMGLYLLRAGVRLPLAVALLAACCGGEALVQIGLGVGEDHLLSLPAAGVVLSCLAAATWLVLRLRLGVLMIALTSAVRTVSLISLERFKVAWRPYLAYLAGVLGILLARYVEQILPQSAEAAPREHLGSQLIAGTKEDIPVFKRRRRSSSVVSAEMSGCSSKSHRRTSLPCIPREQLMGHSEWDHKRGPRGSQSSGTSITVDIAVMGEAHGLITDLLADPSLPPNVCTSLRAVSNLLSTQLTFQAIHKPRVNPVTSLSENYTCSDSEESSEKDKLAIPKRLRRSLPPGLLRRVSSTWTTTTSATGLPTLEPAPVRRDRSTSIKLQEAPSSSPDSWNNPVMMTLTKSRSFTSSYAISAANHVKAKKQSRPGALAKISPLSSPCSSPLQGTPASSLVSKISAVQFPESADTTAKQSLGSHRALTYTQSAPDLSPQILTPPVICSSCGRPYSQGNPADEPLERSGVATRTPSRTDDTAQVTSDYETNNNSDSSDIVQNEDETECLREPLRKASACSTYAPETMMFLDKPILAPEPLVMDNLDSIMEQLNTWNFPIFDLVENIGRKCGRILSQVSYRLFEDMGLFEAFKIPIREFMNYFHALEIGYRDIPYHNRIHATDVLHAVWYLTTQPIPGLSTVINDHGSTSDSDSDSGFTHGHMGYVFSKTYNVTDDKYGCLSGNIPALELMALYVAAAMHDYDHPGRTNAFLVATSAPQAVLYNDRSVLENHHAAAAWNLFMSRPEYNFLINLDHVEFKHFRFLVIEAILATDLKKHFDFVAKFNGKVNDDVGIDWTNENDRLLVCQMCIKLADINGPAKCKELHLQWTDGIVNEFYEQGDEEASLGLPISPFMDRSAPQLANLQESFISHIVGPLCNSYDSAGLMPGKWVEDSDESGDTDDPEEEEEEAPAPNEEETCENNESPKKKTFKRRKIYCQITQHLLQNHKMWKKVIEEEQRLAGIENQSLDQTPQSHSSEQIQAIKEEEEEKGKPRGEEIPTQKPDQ
Description: (§2) The commercially available ^3H-cAMP Scintillation Proximity Assay (SPA, Perkin Elmer) system was used for enzyme inhibition studies. For the determination of the in vitro effect of test substances on the PDE3A reactions 2 μl of the respective test compound solution in DMSO (serial dilutions) were placed in wells of microtiter plates (Isoplate-96/200W; Perkin Elmer). 50 μl of a dilution of PDE3A cell extract from Sf9 cells overexpressing human full length PDE3A (SB Drug Discovery, UK) in buffer A (50 mM Tris/HCl pH 7.5, 8.3 mM MgCl2, 1.7 mM EDTA, 0.2% BSA) was added. The dilution of the PDE3A cell extract was chosen such that the reaction kinetics was linear and less than 70% of the substrate was consumed (typical dilution 1:5000). The reaction was started by addition of 50 μl (0.025 μCi) of 1:2000 in buffer A w/o BSA diluted substrate [8-^3H] adenosine 3′, 5′-cyclic phosphate (1 μCi/μl; Perkin Elmer). After incubation at room temperature for 60 min, the reaction was stopped by addition of 25 μl of a suspension containing 18 mg/ml yttrium scintillation proximity beads (Perkin Elmer) in water. The microtiter plates were sealed and measured in a Microbeta scintillation counter (PerkinElmer Wallac). IC50 values were determined from sigmoidal curves by plotting percentage PDE3A activity vs log compound concentration.

SKMEL3 = experiment: Cell proliferation measurement (Cell Titer Glo, 72 h); assay type: cell-based; details: Homo sapiens, SK-MEL3, SKMEL3, Melanoma
Description: (§3) The antiproliferative activity of the compounds of the general formula (I) was examined in vitro in human cancer cells. For this purpose, 1000 cells, including HuT78 cells, 500 HeLa cells, or 500 A2058 cells, were plated in 384-well plates with appropriate growth medium and incubated at 37° C. overnight. After 24 h, the cells on the test plate were treated with the compounds of the general formula (I) as and incubated at 37° C. for 72 h. The compounds were added to the cells by means of an HP D300 digital dispenser in a 10 (or more)—step dilution series. As control, the cells were treated with vehicle (DMSO at 0.3% final concentration). After 72 h, the cells were treated with 20 µl/well of 50% CTG solution in PBS (Promega Cell Titer Glo (catalogue # G755B and G756B)) and incubated at room temperature for 10 min, and luminescence was measured by means of a VICTOR V (Perkin Elmer), in order to determine cell viability at the end of treatment. The percentage effect on cell growth and the IC50 derived therefrom were determined for each test substance using the values from untreated wells (=percent viability). The IC50 values were calculated using a 4-parameter fit.

IGR37 = experiment: as above; assay type: cell-based; details: Homo sapiens, IGR-37, IGR37, Melanoma
Description: as §3

HeLa = experiment: as above; assay type: cell-based; details: Homo sapiens, Cervical Cancer
Description: as §3

A549 = experiment: as above; assay type: cell-based; details: Homo sapiens, A549, Lung adenocarcinoma, printed as (inactive)
Description: as §3

[3] = In vivo pharmacokinetics in dogs; details: female, Beagle, dog, plasma, iv, after i.v., read-out: clearance in dogs (CLp) (converted)
Description: For in vivo pharmacokinetic experiments test compounds were administered to non-rodents (e.g. female Beagle dogs) intravenously at doses of 0.1 to 1 mg/kg and intragastral at doses of 0.3 to 3 mg/kg formulated as solutions using solubilizers such as PEG400 in well-tolerated amounts and are usually given as short term infusion (15 min).
Blood samples were taken e.g. at 2 min, 8 min, 15 min, 30 min, 45 min, 1 h, 2 h, 4 h, 6 h, 8 h and 24 h after dosing from the vena saphena. Depending on the expected half-life additional samples were taken at later time points (e.g. 48 h, 72 h).
For pharmacokinetics after intragastral administration test compounds were given intragastral to fasted non-rodents (e.g. dogs). Blood samples were taken e.g. at 5 min, 15 min, 30 min, 45 min, 1 h, 2 h, 4 h, 6 h, 8 h and 24 h after dosing. Depending on the expected half-life additional samples were taken at later time points (e.g. 48 h, 72 h). Blood was collected into Lithium-Heparin tubes (Monovetten®, Sarstedt) and centrifuged for 15 min at 3000 rpm. […] PK parameters were calculated by non-compartmental analysis using a PK calculation software. […]
PK parameters calculated from concentration time profiles after i.g.: Cmax: Maximal plasma concentration (in mg/L); Cmaxnorm: Cmax divided by the administered dose (in kg/L); Tmax: Time point at which Cmax was observed (in h). […]

PDE3A-CRISPR A2058 cells = experiment: Dose response in A2058 cells with CRISPR knockout of PDE3A; assay type: cell-based, human
Description: as §3
CRISPR target sites were identified using the MIT CRISPR Design Tool (online MIT CRISPR design portal). For cloning of sgRNAs, forward and reverse oligonucleotides (oligos) were annealed, phosphorylated and ligated into BsmBI-digested pXPR_BRD001. Oligo sequences are as follows:
To produce lentivirus, 293T cells were co-transfected with pXPR_BRD001, psPAX2 and pMD2.G using calcium phosphate. Infected A2058 and HeLa cells were selected with 2 μg/ml of puromycin.

HeLa cells = experiment: HeLa cell viability assay (compound sensitivity testing); assay type: cell-based; details: Homo sapiens, incubated for 48 hours
Description: 1000 HeLa (DMEM), cells were plated in a 384-well plate in 40 μl of corresponding growth media supplemented with 10% Fetal Bovine Serum. 24 hours after plating, indicated compounds were added at indicated concentrations and incubated for 48 hours. Cell viability was assessed as described in Compound library screening in NCI-H1734 and A549 cell lines.

human full length PDE3B = molecular target: T2, human full length PDE3B (Homo sapiens, UniProt Q13370); experiment: PDE3B enzyme inhibition, 3H-cAMP scintillation proximity assay; assay type: biochemical
T2 construct: Sf9 cells overexpressing human full length PDE3B; purchased SB Drug Discovery, UK; host or cells: Sf9 insect cells (cell extract, not purified)
T2 sequence (Q13370 whole entry): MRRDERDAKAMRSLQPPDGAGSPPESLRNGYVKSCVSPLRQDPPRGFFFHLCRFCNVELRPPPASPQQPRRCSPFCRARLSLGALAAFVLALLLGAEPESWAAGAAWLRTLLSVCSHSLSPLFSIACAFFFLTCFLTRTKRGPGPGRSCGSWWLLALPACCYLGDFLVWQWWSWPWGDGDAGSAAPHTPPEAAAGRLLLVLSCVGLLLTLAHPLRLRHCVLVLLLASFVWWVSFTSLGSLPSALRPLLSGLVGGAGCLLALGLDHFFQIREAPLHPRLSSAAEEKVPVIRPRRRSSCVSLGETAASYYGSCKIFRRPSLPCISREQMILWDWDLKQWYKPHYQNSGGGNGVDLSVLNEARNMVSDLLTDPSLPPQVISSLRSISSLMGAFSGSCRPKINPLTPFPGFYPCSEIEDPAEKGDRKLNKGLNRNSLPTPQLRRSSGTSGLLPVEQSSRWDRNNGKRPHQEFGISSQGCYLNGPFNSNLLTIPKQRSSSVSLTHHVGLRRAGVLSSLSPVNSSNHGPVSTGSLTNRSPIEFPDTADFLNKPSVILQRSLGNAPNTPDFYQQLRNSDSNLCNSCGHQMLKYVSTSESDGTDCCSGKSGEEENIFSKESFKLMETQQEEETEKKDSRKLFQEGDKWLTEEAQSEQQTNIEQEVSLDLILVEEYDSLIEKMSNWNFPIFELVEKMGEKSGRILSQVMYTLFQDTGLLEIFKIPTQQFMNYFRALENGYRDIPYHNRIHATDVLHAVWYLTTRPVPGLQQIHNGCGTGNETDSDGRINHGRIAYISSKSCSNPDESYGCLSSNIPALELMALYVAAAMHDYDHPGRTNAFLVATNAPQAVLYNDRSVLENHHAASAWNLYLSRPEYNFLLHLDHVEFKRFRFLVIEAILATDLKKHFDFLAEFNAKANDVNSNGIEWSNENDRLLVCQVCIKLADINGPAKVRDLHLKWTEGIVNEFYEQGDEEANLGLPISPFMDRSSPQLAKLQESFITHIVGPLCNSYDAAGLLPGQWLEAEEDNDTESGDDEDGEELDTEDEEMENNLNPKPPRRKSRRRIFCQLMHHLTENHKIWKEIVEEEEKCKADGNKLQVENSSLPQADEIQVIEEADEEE
Description: as §2, with “PDE3B” for “PDE3A”, “1:6000).” for “1:5000).”

C[C@@H]1CC(=O)NN=C1c1cc(F)c(N2CCOCC2)c(F)c1 [Compound 1, (5R)-6-[3,5-difluoro-4-(morpholin-4-yl)phenyl]-5-methyl-4,5-dihydropyridazin-3(2H)-one]
T/C (mean final tumor weight of treatment versus control) (IGR-37 xenograft): 0.11b)*
T/C (mean tumor area of treatment versus control) (HeLa xenograft): 0.01a)*
T/C (mean final tumor weight of treatment versus control) (SK-MEL3 xenograft): 0.05b)*
T/C (mean final tumor weight of treatment versus control) (A2058 xenograft): 0.07b)*
anti-tumor efficacy [1]: potent anti-tumor efficacy
predicted maximal oral bioavailability (Fmax) [2]: 66%
IC50 (human full length PDE3A): 5 nM and 4.6 nM
IC50 (SKMEL3): 1.01 nM
IC50 (IGR37): 2.19 nM
IC50 (HeLa): 0.852 nM
IC50 (A549): > 600 nM
clearance [3]: 12.8 mL/min/kg
response to cytotoxic effects (PDE3A-CRISPR A2058 cells; ectopic expression of GFP): lack of response
response to cytotoxic effects (PDE3A-CRISPR A2058 cells; ectopic expression of PDE3B): re-sensitized
response to cytotoxic effects (PDE3A-CRISPR A2058 cells; ectopic expression of PDE3B, listed as compound 1): restores sensitivity
EC50 (HeLa cells): 1.1 nM

C[C@@H]1CC(=O)NN=C1c1cc(Cl)c(N2CCOCC2)c(Cl)c1 [Compound 2, 6-[3,5-dichloro-4-(morpholin-4-yl)phenyl]-5-methyl-4,5-dihydropyridazin-3(2H)-one]
IC50 (human full length PDE3B): 11 nM
IC50 (human full length PDE3A): 4 nM
EC50 (HeLa cells): 1.9 nM

C[C@@H]1CC(=O)NN=C1c1ccc(N2CCOCC2)c(F)c1 [(5R)-6-[3-fluoro-4-(morpholin-4-yl)phenyl]-5-methyl-4,5-dihydropyridazin-3(2H)-one, reference compound]
predicted maximal oral bioavailability (Fmax) [2]: 49%
clearance [3]: 28.3 mL/min/kg
